experiment: Solubility experiment in cyclohexanone; type: physicochemical; conditions: dissolved in cyclohexanone (CHON) under normal temperature/pressure; whether 0.1 wt % or more was dissolved
Protocol: In order to confirm the solubility in the solvent used in the solution process of the compounds prepared in the Preparation Examples and the comparative compounds, each of them was dissolved in the solvent cyclohexanone (CHON) under normal temperature/pressure conditions, and it was confirmed whether 0.1 wt % or more was dissolved.

Solvent CHON (solubility) | Compound
◯ (0.1 wt. % or more soluble) | Cc1cccc(N(c2ccc3c4c5ccc6c(c5ccc4n(-c4ccccc4)c3c2)c2ccc(-c3ccc(-c4ccc5c7c8ccc9c(c8ccc7n(-c7ccccc7)c5c4)c4ccc(N(c5cccc(C)c5)c5cccc7c5oc5ccccc57)cc4n9-c4ccccc4)cc3)cc2n6-c2ccccc2)c2cccc3c2oc2ccccc23)c1 [Compound 14]
◯ (0.1 wt. % or more soluble) | Cc1cccc(N(c2ccc3c4c5ccc6c(c5ccc4n(-c4ccccc4)c3c2)c2ccc(N(c3ccc4c5c7ccc8c(c7ccc5n(-c5ccccc5)c4c3)c3ccc(N(c4cccc(C)c4)c4cccc5c4oc4ccccc45)cc3n8-c3ccccc3)c3cccc4c3oc3ccccc34)cc2n6-c2ccccc2)c2cccc3c2oc2ccccc23)c1 [Compound 3]
◯ (0.1 wt. % or more soluble) | CC(C)(C)c1ccc(N(c2ccc3c4c5ccc6c(c5ccc4n(-c4ccccc4)c3c2)c2ccc(N(c3ccccc3)c3ccc4cc(-c5cc7ccccc7o5)ccc4c3)cc2n6-c2ccccc2)c2ccc3c4c5ccc6c(c5ccc4n(-c4ccccc4)c3c2)c2ccc(N(c3ccccc3)c3ccc4cc(-c5cc7ccccc7o5)ccc4c3)cc2n6-c2ccccc2)cc1 [Compound 10]
◯ (0.1 wt. % or more soluble) | CC(C)(C)c1ccc(N(c2ccc3c4c5ccc6c(c5ccc4n(-c4ccccc4)c3c2)c2ccc(N(c3ccccc3)c3ccccc3)cc2n6-c2ccccc2)c2ccc3c4c5ccc6c(c5ccc4n(-c4ccccc4)c3c2)c2ccc(N(c3ccccc3)c3ccccc3)cc2n6-c2ccccc2)cc1 [Compound 11]
◯ (0.1 wt. % or more soluble) | c1ccc(N(c2ccccc2)c2ccc3c4c5ccc6c(c5ccc4n(-c4ccccc4)c3c2)c2ccc(N(c3ccc4cc(-c5cc7ccccc7o5)ccc4c3)c3ccc4c5c7ccc8c(c7ccc5n(-c5ccccc5)c4c3)c3ccc(N(c4ccccc4)c4ccccc4)cc3n8-c3ccccc3)cc2n6-c2ccccc2)cc1 [Compound 12]
◯ (0.1 wt. % or more soluble) | CC(C)(C)c1ccc(N(c2ccc3c4c5ccc6c(c5ccc4n(-c4ccccc4)c3c2)c2ccc(N(c3ccc(-c4ccc5c(c4)c4ccccc4n5-c4ccccc4)cc3)c3ccc4ccccc4c3)cc2n6-c2ccccc2)c2ccc3c4c5ccc6c(c5ccc4n(-c4ccccc4)c3c2)c2ccc(N(c3ccc(-c4ccc5c(c4)c4ccccc4n5-c4ccccc4)cc3)c3ccc4ccccc4c3)cc2n6-c2ccccc2)cc1 [Compound 9]
◯ (0.1 wt. % or more soluble) | Cc1cccc(N(c2ccc3c(c2)c2c4ccc5c(c4ccc2n3-c2ccccc2)c2cc(N(c3ccc(C(C)(C)C)cc3)c3ccc4c(c3)c3c6ccc7c(c6ccc3n4-c3ccccc3)c3cc(N(c4cccc(C)c4)c4cccc6c4oc4ccccc46)ccc3n7-c3ccccc3)ccc2n5-c2ccccc2)c2cccc3c2oc2ccccc23)c1 [Compound 19]
◯ (0.1 wt. % or more soluble) | Cc1cccc(N(c2ccc3c4c5ccc6c(c5ccc4n(-c4ccccc4)c3c2)c2ccc(-c3cccc(-c4ccc5c7c8ccc9c(c8ccc7n(-c7ccccc7)c5c4)c4ccc(N(c5cccc(C)c5)c5cccc7c5oc5ccccc57)cc4n9-c4ccccc4)c3)cc2n6-c2ccccc2)c2cccc3c2oc2ccccc23)c1 [Compound 15]
◯ (0.1 wt. % or more soluble) | Cc1cccc(N(c2cccc3c2oc2ccccc23)c2cccc3c2c2c4ccc5c(c4ccc2n3-c2ccccc2)c2c(N(c3ccc(C(C)(C)C)cc3)c3cccc4c3c3c6ccc7c(c6ccc3n4-c3ccccc3)c3c(N(c4cccc(C)c4)c4cccc6c4oc4ccccc46)cccc3n7-c3ccccc3)cccc2n5-c2ccccc2)c1 [Compound 21]
◯ (0.1 wt. % or more soluble) | Cc1cccc(N(c2ccc3c4c5ccc6c(c5ccc4n(-c4ccccc4)c3c2)c2ccc(N(c3ccc(C(C)(C)C)cc3)c3ccc4c5c7ccc8c(c7ccc5n(-c5ccccc5)c4c3)c3ccc(N(c4cccc(C)c4)c4cccc5c4oc4ccccc45)cc3n8-c3ccccc3)cc2n6-c2ccccc2)c2cccc3c2oc2ccccc23)c1 [Compound 1]
◯ (0.1 wt. % or more soluble) | CC(C)(C)c1ccc(N(c2ccc(C(C)(C)C)cc2)c2ccc3c4c5ccc6c(c5ccc4n(-c4ccccc4)c3c2)c2ccc(N(c3ccc(-c4cc5ccccc5o4)cc3)c3ccc4c5c7ccc8c(c7ccc5n(-c5ccccc5)c4c3)c3ccc(N(c4ccc(C(C)(C)C)cc4)c4ccc(C(C)(C)C)cc4)cc3n8-c3ccccc3)cc2n6-c2ccccc2)cc1 [Compound 8]
X (0.1 wt. % or more insoluble) | CC1(C)c2cc(-c3cc4ccccc4o3)ccc2-c2ccc(N(c3ccccc3)c3ccc4c5c6ccc7c(c6ccc5n(-c5ccccc5)c4c3)c3ccc(N(c4ccccc4)c4ccc5c(c4)C(C)(C)c4cc(-c6cc8ccccc8o6)ccc4-5)cc3n7-c3ccccc3)cc21 [Compound J, reference compound]
◯ (0.1 wt. % or more soluble) | Cc1cccc(N(c2ccc3c4c5ccc6c(c5ccc4n(-c4ccccc4)c3c2)c2ccc(-c3ccc4c5c7ccc8c(c7ccc5n(-c5ccccc5)c4c3)c3ccc(N(c4cccc(C)c4)c4cccc5c4oc4ccccc45)cc3n8-c3ccccc3)cc2n6-c2ccccc2)c2cccc3c2oc2ccccc23)c1 [Compound 16]
◯ (0.1 wt. % or more soluble) | CC(C)(C)c1ccc(N(c2ccc(C(C)(C)C)cc2)c2ccc3c4c5ccc6c(c5ccc4n(-c4ccccc4)c3c2)c2ccc(N(c3ccc(C(C)(C)C)cc3)c3ccc4c5c7ccc8c(c7ccc5n(-c5ccccc5)c4c3)c3ccc(N(c4ccc(C(C)(C)C)cc4)c4ccc(C(C)(C)C)cc4)cc3n8-c3ccccc3)cc2n6-c2ccccc2)cc1 [Compound 6]
◯ (0.1 wt. % or more soluble) | Cc1cccc(N(c2ccc3c4c5ccc6c(c5ccc4n(-c4ccccc4)c3c2)c2ccc(Oc3ccc4c5c7ccc8c(c7ccc5n(-c5ccccc5)c4c3)c3ccc(N(c4cccc(C)c4)c4cccc5c4oc4ccccc45)cc3n8-c3ccccc3)cc2n6-c2ccccc2)c2cccc3c2oc2ccccc23)c1 [Compound 17]
◯ (0.1 wt. % or more soluble) | Cc1cccc(N(c2ccc3c4c5ccc6c(c5ccc4n(-c4ccccc4)c3c2)c2ccc(N(c3ccc(-c4cc5ccccc5o4)cc3)c3ccc4c5c7ccc8c(c7ccc5n(-c5ccccc5)c4c3)c3ccc(N(c4cccc(C)c4)c4cccc5c4oc4ccccc45)cc3n8-c3ccccc3)cc2n6-c2ccccc2)c2cccc3c2oc2ccccc23)c1 [Compound 5]
◯ (0.1 wt. % or more soluble) | Cc1cccc(N(c2ccc3c4c5ccc6c(c5ccc4n(-c4ccccc4)c3c2)c2ccc(N(c3cccc(C)c3)c3cccc4c3oc3ccccc34)cc2n6-c2ccccc2)c2ccc3c4c5ccc6c(c5ccc4n(-c4ccccc4)c3c2)c2ccc(N(c3cccc(C)c3)c3cccc4c3oc3ccccc34)cc2n6-c2ccccc2)c1 [Compound 2]
◯ (0.1 wt. % or more soluble) | Cc1cccc(N(c2ccc3c4c5ccc6c(c5ccc4n(-c4ccccc4)c3c2)c2ccc(N(c3ccccc3)c3ccc4c5c7ccc8c(c7ccc5n(-c5ccccc5)c4c3)c3ccc(N(c4cccc(C)c4)c4cccc5c4oc4ccccc45)cc3n8-c3ccccc3)cc2n6-c2ccccc2)c2cccc3c2oc2ccccc23)c1 [Compound 4]
◯ (0.1 wt. % or more soluble) | CC(C)(C)c1ccc(N(c2ccc(C(C)(C)C)cc2)c2ccc3c4c5ccc6c(c5ccc4n(-c4ccccc4)c3c2)c2ccc(N(c3ccc4c5c7ccc8c(c7ccc5n(-c5ccccc5)c4c3)c3ccc(N(c4ccc(C(C)(C)C)cc4)c4ccc(C(C)(C)C)cc4)cc3n8-c3ccccc3)c3cccc4c3oc3ccccc34)cc2n6-c2ccccc2)cc1 [Compound 7]
◯ (0.1 wt. % or more soluble) | CC(C)(C)c1ccc(N(c2ccc3c4c5ccc6c(c5ccc4n(-c4ccccc4)c3c2)c2ccc(N(c3ccccc3)c3ccc4ccccc4c3)cc2n6-c2ccccc2)c2ccc3c4c5ccc6c(c5ccc4n(-c4ccccc4)c3c2)c2ccc(N(c3ccccc3)c3ccc4ccccc4c3)cc2n6-c2ccccc2)cc1 [Compound 13]
